In US12344600B2, “c-Myc mRNA translation modulators and uses thereof in the treatment of cancer” (Anima Biotech Inc., priority 2022, dated 2025):

test system: c-Myc; assay: c-Myc immunofluorescence assay; format: cell-based, human; conditions: A549 cells, 24 hours, anti-c-Myc immunofluorescence
Outline: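 Read-out is imaged c-Myc immunofluorescence, nucleus-segmented, in A549 lung carcinoma cells exposed to compound dose series for 24 h after 48 h growth. Fixation 4% paraformaldehyde, Triton permeabilization, antibody staining at room temperature; EC50 from logistic fit of signal versus concentration.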

Row | Compound | Myc Efficacy (−LogEC50)
1 | COc1ccc(-c2noc(N3CCN(C(=O)NCCCN4CCC(Oc5ccccc5)CC4)CC3)n2)cc1 [Compound 245, 4-(3-(4-methoxyphenyl)-1,2,4-oxadiazol-5-yl)-N-(3-(4-phenoxypiperidin-1-yl)propyl)piperazine-1-carboxamide] | +++ (+++ ≥6)
2 | C#CCCC1(CCNC(=O)N2CCN(c3nc(-c4ccc(OC)cc4)no3)CC2)N=N1 [Compound 246, N-(2-(3-(but-3-yn-1-yl)-3H-diazirin-3-yl)ethyl)-4-(3-(4-methoxyphenyl)-1,2,4-oxadiazol-5-yl)piperazine-1-carboxamide] | + (+ >3 and <5)
3 | COc1cnc(-c2noc(N3CCC(C(=O)NCC4CCN(Cc5ccc(C)cc5)C4)CC3)n2)nc1 (centres unmarked) [Compound 247, 1-(3-(5-methoxypyrimidin-2-yl)-1,2,4-oxadiazol-5-yl)-N-((1-(4-methylbenzyl)pyrrolidin-3-yl)methyl)piperidine-4-carboxamide] | + (+ >3 and <5)
4 | COc1ccc(-c2noc(N3CCN(C(=O)NCCCN4CCC(Cc5ccccn5)CC4)CC3)n2)cc1 [Compound 248, 4-(3-(4-methoxyphenyl)-1,2,4-oxadiazol-5-yl)-N-(3-(4-(pyridin-2-ylmethyl)piperidin-1-yl)propyl)piperazine-1-carboxamide] | +++ (+++ ≥6)
5 | COc1ccc(-c2noc(N3CCC(C(=O)NCC4(N(C)C)CCCCC4)CC3)n2)cc1 [Compound 249, N-((1-(dimethylamino)cyclohexyl)methyl)-1-(3-(4-methoxyphenyl)-1,2,4-oxadiazol-5-yl)piperidine-4-carboxamide] | + (+ >3 and <5)
6 | COc1ccc(-c2noc(N3CCC(C(=O)NCC4CCN(C(C)(C)C)C4)CC3)n2)cc1 (centres unmarked) [Compound 250, N-((1-(tert-butyl)pyrrolidin-3-yl)methyl)-1-(3-(4-methoxyphenyl)-1,2,4-oxadiazol-5-yl)piperidine-4-carboxamide] | + (+ >3 and <5)
7 | CCCN1CCC(NC(=O)C2CCN(c3nc(-c4ccc(OC)cc4)no3)CC2)CC1 [Compound 251, 1-(3-(4-methoxyphenyl)-1,2,4-oxadiazol-5-yl)-N-(1-propylpiperidin-4-yl)piperidine-4-carboxamide] | − (− ≤3)
8 | COc1ccc(-c2noc(N3CCC(C(=O)NC[C@H]4CCCN4C)CC3)n2)cc1 [Compound 252, (R)-1-(3-(4-methoxyphenyl)-1,2,4-oxadiazol-5-yl)-N-((1-methylpyrrolidin-2-yl)methyl)piperidine-4-carboxamide] | + (+ >3 and <5)
9 | COc1ccc(-c2noc(N3CCC(C(=O)NC[C@H]4CCN(C)C4)CC3)n2)cc1 [Compound 253, (R)-1-(3-(4-methoxyphenyl)-1,2,4-oxadiazol-5-yl)-N-((1-methylpyrrolidin-3-yl)methyl)piperidine-4-carboxamide] | + (+ >3 and <5)
10 | COc1ccc(-c2noc(N3CCC(C(=O)NC4CCOCC4)CC3)n2)cc1 [Compound 254, 1-(3-(4-methoxyphenyl)-1,2,4-oxadiazol-5-yl)-N-(tetrahydro-2H-pyran-4-yl)piperidine-4-carboxamide] | + (+ >3 and <5)
11 | COc1ccc(-c2noc(N3CCC(C(=O)NCC4CCOC4)CC3)n2)cc1 (centres unmarked) [Compound 255, 1-(3-(4-methoxyphenyl)-1,2,4-oxadiazol-5-yl)-N-((tetrahydrofuran-3-yl)methyl)piperidine-4-carboxamide] | + (+ >3 and <5)
12 | COc1ccc(-c2noc(N3CCC(C(=O)N[C@H]4C[C@@H](OC)C4)CC3)n2)cc1 [Compound 256, N-((1s,3s)-3-methoxycyclobutyl)-1-(3-(4-methoxyphenyl)-1,2,4-oxadiazol-5-yl)piperidine-4-carboxamide] | + (+ >3 and <5)
13 | COc1ccc(-c2noc(N3CCC(C(=O)NCc4ccccc4N4CCCC4)CC3)n2)cc1 [Compound 257, 1-(3-(4-methoxyphenyl)-1,2,4-oxadiazol-5-yl)-N-(2-(pyrrolidin-1-yl)benzyl)piperidine-4-carboxamide] | + (+ >3 and <5)
14 | COc1ccc(-c2noc(N3CCC(C(=O)NC4(C(O)c5ccccc5)CC4)CC3)n2)cc1 (centres unmarked) [Compound 258, N-(1-(hydroxy(phenyl)methyl)cyclopropyl)-1-(3-(4-methoxyphenyl)-1,2,4-oxadiazol-5-yl)piperidine-4-carboxamide] | + (+ >3 and <5)
15 | COc1ccc(-c2noc(N3CCC(C(=O)N[C@H]4c5ccccc5C[C@H]4O)CC3)n2)cc1 [Compound 259, N-((1S,2R)-2-hydroxy-2,3-dihydro-1H-inden-1-yl)-1-(3-(4-methoxyphenyl)-1,2,4-oxadiazol-5-yl)piperidine-4-carboxamide] | + (+ >3 and <5)
16 | COc1ccc(-c2noc(N3CCC(C(=O)NCC(C)(O)c4ccccc4)CC3)n2)cc1 (centres unmarked) [Compound 260, N-(2-hydroxy-2-phenylpropyl)-1-(3-(4-methoxyphenyl)-1,2,4-oxadiazol-5-yl)piperidine-4-carboxamide] | + (+ >3 and <5)

Row | Compound | Myc Efficacy (−LogEC50)
17 | COc1ccc(-c2noc(N3CCC(C(=O)NC4=NCCS4)CC3)n2)cc1 [Compound 261, N-(4,5-dihydrothiazol-2-yl)-1-(3-(4-methoxyphenyl)-1,2,4-oxadiazol-5-yl)piperidine-4-carboxamide] | + (+ >3 and <5)
18 | COc1ccc(-c2noc(N3CCC(C(=O)NC(CO)c4cccs4)CC3)n2)cc1 (centres unmarked) [Compound 262, N-(2-hydroxy-1-(thiophen-2-yl)ethyl)-1-(3-(4-methoxyphenyl)-1,2,4-oxadiazol-5-yl)piperidine-4-carboxamide] | + (+ >3 and <5)
19 | COc1ccc(-c2noc(N3CCC(C(=O)NC(C)Cc4ccccn4)CC3)n2)cc1 (centres unmarked) [Compound 263, 1-(3-(4-methoxyphenyl)-1,2,4-oxadiazol-5-yl)-N-(1-(pyridin-2-yl)propan-2-yl)piperidine-4-carboxamide] | − (− ≤3)
20 | COc1ccc(-c2noc(N3CCC(C(=O)NC4(c5ccccc5)CC4)CC3)n2)cc1 [Compound 264, 1-(3-(4-methoxyphenyl)-1,2,4-oxadiazol-5-yl)-N-(1-phenylcyclopropyl)piperidine-4-carboxamide] | + (+ >3 and <5)
21 | COc1ccc(-c2noc(N3CCC(C(=O)N[C@@H](CO)c4ccccc4)CC3)n2)cc1 [Compound 265, (R)-N-(2-hydroxy-1-phenylethyl)-1-(3-(4-methoxyphenyl)-1,2,4-oxadiazol-5-yl)piperidine-4-carboxamide] | + (+ >3 and <5)
22 | COc1ccc(-c2noc(N3CCC(C(=O)N[C@@H](C)c4ccccc4F)CC3)n2)cc1 [Compound 266, (S)-N-(1-(2-fluorophenyl)ethyl)-1-(3-(4-methoxyphenyl)-1,2,4-oxadiazol-5-yl)piperidine-4-carboxamide] | + (+ >3 and <5)
23 | Cc1ccc(CN2CC(CNC(=O)C3CCN(c4nc(-c5ccc(C#N)cc5)no4)CC3)CC2=O)cc1 (centres unmarked) [Compound 267, 1-(3-(4-cyanophenyl)-1,2,4-oxadiazol-5-yl)-N-((1-(4-methylbenzyl)-5-oxopyrrolidin-3-yl)methyl)piperidine-4-carboxamide] | ++ (++ ≥5 and <6)
24 | Cc1ccc(CN2CC(CNC(=O)N3CCN(c4nc(-c5ccc(C#N)cc5)no4)CC3)CC2=O)cc1 (centres unmarked) [Compound 268, 4-(3-(4-cyanophenyl)-1,2,4-oxadiazol-5-yl)-N-((1-(4-methylbenzyl)-5-oxopyrrolidin-3-yl)methyl)piperazine-1-carboxamide] | ++ (++ ≥5 and <6)
25 | COc1ccc(-c2noc(N3CCC(C(=O)NCCN4CCCC4(C)C)CC3)n2)cc1 [Compound 269, N-(2-(2,2-dimethylpyrrolidin-1-yl)ethyl)-1-(3-(4-methoxyphenyl)-1,2,4-oxadiazol-5-yl)piperidine-4-carboxamide] | + (+ >3 and <5)
26 | COc1ccc(-c2noc(N3CCC(C(=O)NCC4(O)CCCCC4)CC3)n2)cc1 [Compound 270, N-((1-hydroxycyclohexyl)methyl)-1-(3-(4-methoxyphenyl)-1,2,4-oxadiazol-5-yl)piperidine-4-carboxamide] | + (+ >3 and <5)
27 | COc1ccc(-c2noc(N3CCC(C(=O)NC4CC5(C4)CN(C)C5)CC3)n2)cc1 [Compound 271, 1-(3-(4-methoxyphenyl)-1,2,4-oxadiazol-5-yl)-N-(2-methyl-2-azaspiro[3.3]heptan-6-yl)piperidine-4-carboxamide] | + (+ >3 and <5)
28 | COc1ccc(-c2noc(N3CCC(C(=O)NC[C@H]4CC(C)(C)O4)CC3)n2)cc1 [Compound 272, (R)-N-((4,4-dimethyloxetan-2-yl)methyl)-1-(3-(4-methoxyphenyl)-1,2,4-oxadiazol-5-yl)piperidine-4-carboxamide] | + (+ >3 and <5)
29 | COc1ccc(-c2noc(N3CCC(C(=O)NCC4(c5ccccc5)CCOCC4)CC3)n2)cc1 [Compound 273, 1-(3-(4-methoxyphenyl)-1,2,4-oxadiazol-5-yl)-N-((4-phenyltetrahydro-2H-pyran-4-yl)methyl)piperidine-4-carboxamide] | − (− ≤3)
30 | COc1ccc(-c2noc(N3CCC(C(=O)N[C@@H]4CC[C@H](O)C4)CC3)n2)cc1 [Compound 274, N-((1R,3S)-3-hydroxycyclopentyl)-1-(3-(4-methoxyphenyl)-1,2,4-oxadiazol-5-yl)piperidine-4-carboxamide] | + (+ >3 and <5)
31 | COc1ccc(-c2noc(N3CCC(C(=O)NC4CCC(F)(F)C4)CC3)n2)cc1 (centres unmarked) [Compound 275, N-(3,3-difluorocyclopentyl)-1-(3-(4-methoxyphenyl)-1,2,4-oxadiazol-5-yl)piperidine-4-carboxamide] | + (+ >3 and <5)
32 | COc1ccc(-c2noc(N3CCC(C(=O)NC[C@H](C)OC)CC3)n2)cc1 [Compound 276, (S)-1-(3-(4-methoxyphenyl)-1,2,4-oxadiazol-5-yl)-N-(2-methoxypropyl)piperidine-4-carboxamide] | + (+ >3 and <5)
